Entries after “also recorded” stand apart in the source; their conditions may differ.
Assays:
[1] = system: PPC-1 prostate cancer cells; conditions: for synergy with TRAIL to reduce the number of viable cells: compound 5 μM, Figure 4; for synergy with TRAIL to reduce the number of viable cells / LD50 values for TRAIL in the presence of the compound: PPC-1 cells; for LD50 values for TRAIL in the presence of the compound: compound 5 μM for 4 h, then TRAIL 20 h
MDA-MB-231 cells = experiment: Synergy with TNF to induce cell death in MDA-MB-231 cells; format: cell-based; conditions: compound 5 μM, various concentrations of TNF, Figure S2
[2] = system: human foreskin fibroblasts (HFF); format: cell-based; conditions: compound 5 μM alone or in the presence of TRAIL (100 ng/mL), Figure 5
Cellular assay = format: cell-based; conditions: Figure S1

| SMILES | synergy with TRAIL to reduce the number of viable cells [1] | synergy with TNF to induce cell death (MDA-MB-231 cells) | toxicity in normal cells [2] | LD50 values for TRAIL in the presence of the compound [1] [nM] | toxicity as a single agent ([1]; single agent, Figures 4, 5 and S1) | activity in a cellular assay (Cellular assay) |
| --- | --- | --- | --- | --- | --- | --- |
| CN[C@@H](C)C(=O)N[C@H](C(=O)N1CCC[C@H]1C(=O)NNc1ccccc1)C(C)C [Compound 2a] | act synergistically with TRAIL |  |  |  |  |  |
| CN[C@@H](C)C(=O)N[C@H](C(=O)N1CCC[C@H]1C(=O)Nc1cccc2ccccc12)C(C)C [Compound 2b] | act synergistically with TRAIL | acts synergistically | No toxicity was observed | 0.073 to 0.089 |  |  |
| CN[C@@H](C)C(=O)N[C@H](C(=O)N1CCC[C@H]1C(=O)N[C@@H]1CCCc2ccccc21)C(C)C [Compound 2c] | act synergistically with TRAIL |  |  | 0.073 to 0.089 |  |  |
| CN[C@@H](C)C(=O)N[C@H](C(=O)N[C@@H](C)C(=O)Nc1cccc2ccccc12)C(C)C [Compound 8q] | sensitized TRAIL-resistant prostate cancer cells to apoptotic cell death; also recorded: act synergistically with TRAIL |  | No toxicity was observed | 0.073 to 0.089 | no toxicity |  |
| CC(C)[C@H](NC(=O)[C@H](C)N)C(=O)N[C@@H](C)C(=O)Nc1cccc2ccccc12 [Compound 8t] |  |  |  |  |  | did not show any activity |
